Assay results: US12227495B2, “Herbicidal compounds” (SYNGENTA CROP PROTECTION AG, priority 2018, dated 2025)

How the values were obtained:
Type in all cases: in vivo
[1] = tested on: Amaranthus retoflexus (AMARE); assay: Pre-emergence herbicide test, glasshouse, percentage damage; conditions: rate 1000 g/ha, evaluated after 13 days
Summary of the method: (§1)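 Damage was rated 13 days after spraying on a five-point scale (1=0-20% to 5=81-100%). The compound was applied at 500 g/ha unless stated otherwise, in acetone/water 50:50 plus 0.5% Tween 20, on day 1 (pre-emergence) or day 8 (post-emergence) after sowing. Plants were kept under glasshouse conditions of 24/16° C day/night and 14 h light.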

[2] = tested on: Setaria faberi (SETFA); assay: as above; conditions: rate 1000 g/ha, evaluated after 13 days
Summary of the method: as §1

[3] = tested on: Solanum nigrum (SOLNI); assay: as above; conditions: rate 1000 g/ha, evaluated after 13 days
Summary of the method: as §1

[4] = tested on: Lolium perenne (LOLPE); assay: as above; conditions: rate 1000 g/ha, evaluated after 13 days
Summary of the method: as §1

[5] = tested on: Ipomoea hederacea (IPOHE); assay: as above; conditions: rate 1000 g/ha, evaluated after 13 days
Summary of the method: as §1

[6] = tested on: Echinochloa crus-galli (ECHCG); assay: as above; conditions: rate 1000 g/ha, evaluated after 13 days
Summary of the method: as §1

[7] = tested on: Amaranthus retoflexus (AMARE); assay: Post-emergence herbicide test, glasshouse, percentage damage; conditions: 1000 g/ha, evaluated after 13 days
Summary of the method: as §1

[8] = tested on: Setaria faberi (SETFA); assay: as above; conditions: 1000 g/ha, evaluated after 13 days
Summary of the method: as §1

[9] = tested on: Solanum nigrum (SOLNI); assay: as above; conditions: 1000 g/ha, evaluated after 13 days
Summary of the method: as §1

[10] = tested on: Lolium perenne (LOLPE); assay: as above; conditions: 1000 g/ha, evaluated after 13 days
Summary of the method: as §1

[11] = tested on: Ipomoea hederacea (IPOHE); assay: as above; conditions: 1000 g/ha, evaluated after 13 days
Summary of the method: as §1

[12] = tested on: Echinochloa crus-galli (ECHCG); assay: as above; conditions: 1000 g/ha, evaluated after 13 days
Summary of the method: as §1

Fc1cnc(Oc2cccc(Br)c2-c2cc(C(F)F)no2)c(F)c1 [Compound A101]
Pre-emergence Test AMARE percentage damage (five point scale) [1]: 5 (5=81-100%) | Pre-emergence Test SETFA percentage damage (five point scale) [2]: 5 (5=81-100%) | Pre-emergence Test SOLNI percentage damage (five point scale) [3]: 4 (4=61-80%) | Pre-emergence Test LOLPE percentage damage (five point scale) [4]: 5 (5=81-100%) | Pre-emergence Test IPOHE percentage damage (five point scale) [5]: 5 (5=81-100%) | Pre-emergence Test ECHCG percentage damage (five point scale) [6]: 5 (5=81-100%) | percentage damage caused to the plant, AMARE [7]: 5 (5=81-100%) | percentage damage caused to the plant, SETFA [8]: 5 (5=81-100%) | percentage damage caused to the plant, SOLNI [9]: 5 (5=81-100%) | percentage damage caused to the plant, LOLPE [10]: 4 (4=61-80%) | percentage damage caused to the plant, IPOHE [11]: 5 (5=81-100%) | percentage damage caused to the plant, ECHCG [12]: 4 (4=61-80%)

Fc1cc(Cl)cnc1Oc1cccc(Br)c1-n1cc(C(F)(F)F)cn1 [Compound A59]
Pre-emergence Test AMARE percentage damage (five point scale) [1]: 5 (5=81-100%) | Pre-emergence Test SETFA percentage damage (five point scale) [2]: 5 (5=81-100%) | Pre-emergence Test SOLNI percentage damage (five point scale) [3]: 5 (5=81-100%) | Pre-emergence Test LOLPE percentage damage (five point scale) [4]: 4 (4=61-80%) | Pre-emergence Test IPOHE percentage damage (five point scale) [5]: 2 (2=21-40%) | Pre-emergence Test ECHCG percentage damage (five point scale) [6]: 2 (2=21-40%) | percentage damage caused to the plant, AMARE [7]: 5 (5=81-100%) | percentage damage caused to the plant, SETFA [8]: 5 (5=81-100%) | percentage damage caused to the plant, SOLNI [9]: 5 (5=81-100%) | percentage damage caused to the plant, LOLPE [10]: 4 (4=61-80%) | percentage damage caused to the plant, IPOHE [11]: 5 (5=81-100%) | percentage damage caused to the plant, ECHCG [12]: 3 (3=41-60%)

N#Cc1cccc(Oc2ncc(F)cc2F)c1-n1cc(C(F)(F)F)cn1 [Compound A34]
Pre-emergence Test AMARE percentage damage (five point scale) [1]: 5 (5=81-100%) | Pre-emergence Test SETFA percentage damage (five point scale) [2]: 5 (5=81-100%) | Pre-emergence Test SOLNI percentage damage (five point scale) [3]: 5 (5=81-100%) | Pre-emergence Test LOLPE percentage damage (five point scale) [4]: 5 (5=81-100%) | Pre-emergence Test IPOHE percentage damage (five point scale) [5]: 5 (5=81-100%) | Pre-emergence Test ECHCG percentage damage (five point scale) [6]: 5 (5=81-100%) | percentage damage caused to the plant, AMARE [7]: 5 (5=81-100%) | percentage damage caused to the plant, SETFA [8]: 5 (5=81-100%) | percentage damage caused to the plant, SOLNI [9]: 5 (5=81-100%) | percentage damage caused to the plant, LOLPE [10]: 5 (5=81-100%) | percentage damage caused to the plant, IPOHE [11]: 5 (5=81-100%) | percentage damage caused to the plant, ECHCG [12]: 5 (5=81-100%)

N#Cc1cnn(-c2ccccc2Oc2ncc(Cl)cc2F)c1 [Compound A26]
Pre-emergence Test AMARE percentage damage (five point scale) [1]: 5 (5=81-100%) | Pre-emergence Test SETFA percentage damage (five point scale) [2]: 5 (5=81-100%) | Pre-emergence Test SOLNI percentage damage (five point scale) [3]: 5 (5=81-100%) | Pre-emergence Test LOLPE percentage damage (five point scale) [4]: 5 (5=81-100%) | Pre-emergence Test IPOHE percentage damage (five point scale) [5]: 4 (4=61-80%) | Pre-emergence Test ECHCG percentage damage (five point scale) [6]: 5 (5=81-100%) | percentage damage caused to the plant, AMARE [7]: 5 (5=81-100%) | percentage damage caused to the plant, SETFA [8]: 5 (5=81-100%) | percentage damage caused to the plant, SOLNI [9]: 5 (5=81-100%) | percentage damage caused to the plant, LOLPE [10]: 3 (3=41-60%) | percentage damage caused to the plant, IPOHE [11]: 3 (3=41-60%) | percentage damage caused to the plant, ECHCG [12]: 5 (5=81-100%)

FC(F)(F)c1ccc(Oc2ccccc2-n2cc(C(F)(F)F)cn2)nc1 [Compound A15]
Pre-emergence Test AMARE percentage damage (five point scale) [1]: 5 (5=81-100%) | Pre-emergence Test SETFA percentage damage (five point scale) [2]: 5 (5=81-100%) | Pre-emergence Test SOLNI percentage damage (five point scale) [3]: 4 (4=61-80%) | Pre-emergence Test LOLPE percentage damage (five point scale) [4]: 3 (3=41-60%) | Pre-emergence Test IPOHE percentage damage (five point scale) [5]: 1 (1=0-20%) | Pre-emergence Test ECHCG percentage damage (five point scale) [6]: 5 (5=81-100%) | percentage damage caused to the plant, AMARE [7]: 1 (1=0-20%) | percentage damage caused to the plant, SETFA [8]: 3 (3=41-60%) | percentage damage caused to the plant, SOLNI [9]: 4 (4=61-80%) | percentage damage caused to the plant, LOLPE [10]: 1 (1=0-20%) | percentage damage caused to the plant, IPOHE [11]: 2 (2=21-40%) | percentage damage caused to the plant, ECHCG [12]: 2 (2=21-40%)

FC(F)c1cc(-c2c(Cl)cccc2Oc2ncc(Cl)cc2Cl)on1 [Compound A109]
Pre-emergence Test AMARE percentage damage (five point scale) [1]: 4 (4=61-80%) | Pre-emergence Test SETFA percentage damage (five point scale) [2]: 4 (4=61-80%) | Pre-emergence Test SOLNI percentage damage (five point scale) [3]: 3 (3=41-60%) | Pre-emergence Test LOLPE percentage damage (five point scale) [4]: 2 (2=21-40%) | Pre-emergence Test IPOHE percentage damage (five point scale) [5]: 1 (1=0-20%) | Pre-emergence Test ECHCG percentage damage (five point scale) [6]: 2 (2=21-40%) | percentage damage caused to the plant, AMARE [7]: 5 (5=81-100%) | percentage damage caused to the plant, SETFA [8]: 5 (5=81-100%) | percentage damage caused to the plant, SOLNI [9]: 5 (5=81-100%) | percentage damage caused to the plant, LOLPE [10]: 3 (3=41-60%) | percentage damage caused to the plant, IPOHE [11]: 4 (4=61-80%) | percentage damage caused to the plant, ECHCG [12]: 4 (4=61-80%)
